What was measured:
Format in all cases: binding
Details in all cases: Compound Concentration 10 µM
panel of 442 kinases [1] = target: T1, panel of 442 kinases (Homo sapiens, UniProt Q00537)
T1 construct: purchased KINOMEscan
Text: (§1) We assessed the selectivity of members of this scaffold using the KINOMEscan methodology across a near comprehensive panel of 442 kinases [[18,27]].

panel of 442 kinases [2] = target: T2, panel of 442 kinases (Homo sapiens, UniProt P10721, V559D/V654A)
T2 construct: purchased KINOMEscan
T2 sequence (P10721 26-976 V559D/V654A): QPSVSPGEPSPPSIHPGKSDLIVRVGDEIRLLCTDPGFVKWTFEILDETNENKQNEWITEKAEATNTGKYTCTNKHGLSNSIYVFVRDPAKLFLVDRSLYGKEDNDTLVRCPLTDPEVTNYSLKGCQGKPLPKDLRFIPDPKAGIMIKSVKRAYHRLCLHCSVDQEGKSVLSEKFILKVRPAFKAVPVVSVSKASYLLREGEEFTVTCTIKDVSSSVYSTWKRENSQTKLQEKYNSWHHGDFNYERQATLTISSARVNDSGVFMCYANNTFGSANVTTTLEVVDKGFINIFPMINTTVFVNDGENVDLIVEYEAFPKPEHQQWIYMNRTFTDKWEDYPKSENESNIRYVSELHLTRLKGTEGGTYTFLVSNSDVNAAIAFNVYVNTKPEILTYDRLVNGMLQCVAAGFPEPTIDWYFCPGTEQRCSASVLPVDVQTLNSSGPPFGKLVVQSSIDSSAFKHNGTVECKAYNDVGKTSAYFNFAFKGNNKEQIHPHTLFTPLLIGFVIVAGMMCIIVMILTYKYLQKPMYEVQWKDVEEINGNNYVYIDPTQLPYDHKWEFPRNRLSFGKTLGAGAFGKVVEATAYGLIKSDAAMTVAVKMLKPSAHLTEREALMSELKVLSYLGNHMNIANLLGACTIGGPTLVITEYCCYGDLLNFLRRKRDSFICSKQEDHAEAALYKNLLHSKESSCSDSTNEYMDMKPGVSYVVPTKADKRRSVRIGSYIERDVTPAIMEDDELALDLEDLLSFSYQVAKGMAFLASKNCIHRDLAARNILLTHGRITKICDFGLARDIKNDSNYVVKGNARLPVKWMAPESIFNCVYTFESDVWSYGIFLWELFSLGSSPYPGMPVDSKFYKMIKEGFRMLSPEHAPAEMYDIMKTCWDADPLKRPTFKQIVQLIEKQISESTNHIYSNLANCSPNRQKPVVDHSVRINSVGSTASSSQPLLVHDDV
Text: as §1

panel of 442 kinases [3] = target: T3, panel of 442 kinases (Homo sapiens, UniProt Q13043)
T3 construct: purchased KINOMEscan
T3 sequence (Q13043 1-487): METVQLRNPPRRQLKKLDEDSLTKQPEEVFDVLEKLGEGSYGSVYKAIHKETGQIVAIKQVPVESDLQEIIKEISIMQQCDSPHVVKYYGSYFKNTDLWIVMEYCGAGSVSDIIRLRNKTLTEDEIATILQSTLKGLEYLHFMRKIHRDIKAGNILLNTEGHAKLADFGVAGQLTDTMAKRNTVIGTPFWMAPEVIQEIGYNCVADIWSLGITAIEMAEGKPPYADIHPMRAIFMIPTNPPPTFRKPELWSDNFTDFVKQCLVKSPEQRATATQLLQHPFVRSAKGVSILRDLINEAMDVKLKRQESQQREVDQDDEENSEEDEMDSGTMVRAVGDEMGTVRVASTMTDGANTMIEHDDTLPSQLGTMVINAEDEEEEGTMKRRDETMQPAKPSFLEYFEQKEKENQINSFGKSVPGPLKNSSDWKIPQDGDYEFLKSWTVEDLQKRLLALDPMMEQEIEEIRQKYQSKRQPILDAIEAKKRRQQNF
Text: as §1

T1 sequence (Q00537 whole entry): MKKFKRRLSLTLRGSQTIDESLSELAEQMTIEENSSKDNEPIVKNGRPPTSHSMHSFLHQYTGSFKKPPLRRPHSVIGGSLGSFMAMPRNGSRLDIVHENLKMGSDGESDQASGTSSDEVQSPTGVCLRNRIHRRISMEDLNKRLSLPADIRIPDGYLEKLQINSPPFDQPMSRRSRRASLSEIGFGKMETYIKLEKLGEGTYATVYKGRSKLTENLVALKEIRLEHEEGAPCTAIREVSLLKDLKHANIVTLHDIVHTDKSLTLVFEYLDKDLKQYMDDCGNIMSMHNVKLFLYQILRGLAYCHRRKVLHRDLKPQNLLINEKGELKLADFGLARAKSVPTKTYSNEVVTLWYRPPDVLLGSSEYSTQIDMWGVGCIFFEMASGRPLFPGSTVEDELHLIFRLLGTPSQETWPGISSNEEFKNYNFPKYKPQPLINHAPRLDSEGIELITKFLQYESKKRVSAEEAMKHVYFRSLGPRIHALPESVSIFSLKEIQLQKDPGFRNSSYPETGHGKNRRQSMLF

| Structure (SMILES) | KINOMEscan: PCTK2 (panel of 442 kinases [1]) | KINOMEscan: KIT(V559D,V654A) (panel of 442 kinases [2]) | KINOMEscan: MST1 (panel of 442 kinases [3]) |
| --- | --- | --- | --- |
| COc1cc(C(=O)N2CCC(N3CCN(C)CC3)CC2)ccc1Nc1ncc2c(n1)N(C1CCCC1)c1ccccc1C(=O)N2C [Compound 25, 11-cyclopentyl-2-((2-methoxy-4-(4-(4-methylpiperazin-1-yl)piperidine-1-carbonyl)phenyl)amino)-5-methyl-5H-benzo[e]pyrimido[5,4-b][1,4]diazepin-6(11H)-one] | 80 | 100 | 100 |
| CCOc1cc(C(=O)N2CCC(N3CCN(C)CC3)CC2)ccc1Nc1ncc2c(n1)N(C1CCCC1)c1ccccc1C(=O)N2C [Compound 26] | 100 | 100 | 100 |
| COc1cc(C(=O)N2CCC(N3CCN(C)CC3)CC2)ccc1Nc1ncc2c(n1)N1CCc3cccc(c31)C(=O)N2C [Compound 24] | 95 | – | 95 |
| COc1cc(C(=O)N2CCC(N3CCN(C)CC3)CC2)ccc1Nc1ncc2c(n1)N(C)c1ccccc1C(=O)N2C [15 (LRRK2-IN-1)] | 83 | 100 | 100 |

Source: PMC3914206
